Tests used:
corneal wounds = assay: Corneal epithelial defect wound healing in rabbits (fluorescein staining, computerized area determination); type: in vivo, New Zealand White rabbits
Procedure: The study disclosed herein evaluates and quantifies the wound healing effects of histatins on the ocular surface of New Zealand White rabbits.
Epithelial defects are created in the right eye (oculus dexter, OD) of 12 New Zealand White rabbits. Due to animal regulations, bilateral wounding is not permitted. After the epithelial defects are made, the rabbits are randomized into treatment groups. Two (2) groups are treated with different cyclized histatin concentrations: 0.1 μg/ml and 10 μg/ml dissolved into an ophthalmic artificial tear preparation and delivered to the rabbits as an eye drop three times daily. Histatins known in the art, including, but not limited to, amino acid SEQ ID NOS: 1 through 33, which include Hst-1 (SEQ ID NO: 4), Hst-2 (SEQ ID NO: 5), Hst-3 (SEQ ID NO: 6), Hst-5 (SEQ ID NO: 30), and sortase cyclized histatin (SEQ ID NO: 33), may be used in these studies or in treatment protocols. […] This control group should receive the same vehicle identical to the other two groups but without histatin. An over-the-counter artificial tear preferably serves as the vehicle. The initial study included four (4) animals/group in three (3) groups, for a total of twelve rabbits.
Each rabbit group is preferably given moxifloxicin treatment to prevent infection.
(§1) The corneal wounds are then evaluated daily for the corneal wound healing abilities of histatin via fluorescein staining, fluorescent slit lamp biomicrophotography and computerized area determination. Evaluators are masked to the therapeutic treatment given to the rabbits. After healing, two (2) animals from each group are euthanized, and the corneas collected for histological processing (H&E staining with subsequent evaluation by veterinary histopathologist). The decision to perform histopathologic analysis after tissue procurement is made only if there is proven difference in healing between the different treatment groups and the controls. At study termination (study preferably continues for seven days), the remaining animals are euthanized.

rabbit corneas = conditions: in vivo
Procedure: as §1
The histatin used in this study was cyclized histatin 1.

With “cyclo(DNLPETGGDSHEKRHHGYRRKFHEKHHSHREFPFYGDYGSNYLY) [cyclized histatin 1]” the Corneal wound size (corneal wounds; 0.1 μg/ml eye drop three times daily, 54 hours post wound) was 0.00 ± 0.00 mm^2, the Corneal wound size (corneal wounds; 0.1 μg/ml eye drop three times daily, 72 hours post wound) was 0.00 ± 0.00 mm^2 and the “Percentage of 1 hour post wound size” value (corneal wounds; 0.1 ug/ml, 0 hours post wound) was 100%. For the same substance, the “Percentage of 1 hour post wound size” value (corneal wounds; 0.1 ug/ml, 6 hours post wound) was 85%, the “Percentage of 1 hour post wound size” value (corneal wounds; 0.1 ug/ml, 24 hours post wound) was 69% and the “Percentage of 1 hour post wound size” value (corneal wounds; 0.1 ug/ml, 30 hours post wound) was 43%. The “Percentage of 1 hour post wound size” value (corneal wounds; 0.1 ug/ml, 48 hours post wound) was 2%, the “Percentage of 1 hour post wound size” value (corneal wounds; 0.1 ug/ml, 54 hours post wound) was 0% and the “Percentage of 1 hour post wound size” value (corneal wounds; 0.1 ug/ml, 72 hours post wound) was 0%. For the same substance, the Corneal wound size (corneal wounds; 10 μg/ml eye drop three times daily, 48 hours post wound) was 0.00 ± 0.07 mm^2, the Corneal wound size (corneal wounds; 10 μg/ml eye drop three times daily, 54 hours post wound) was 0.00 ± 0.00 mm^2 and the Corneal wound size (corneal wounds; 10 μg/ml eye drop three times daily, 72 hours post wound) was 0.00 ± 0.00 mm^2. For the same substance, the “Percentage of 1 hour post wound size” value (corneal wounds; 10 ug/ml, 0 hours post wound) was 100%, the “Percentage of 1 hour post wound size” value (corneal wounds; 10 ug/ml, 6 hours post wound) was 84% and the “Percentage of 1 hour post wound size” value (corneal wounds; 10 ug/ml, 24 hours post wound) was 58%. For the same substance, the “Percentage of 1 hour post wound size” value (corneal wounds; 10 ug/ml, 30 hours post wound) was 43%, the “Percentage of 1 hour post wound size” value (corneal wounds; 10 ug/ml, 48 hours post wound) was 0% and the “Percentage of 1 hour post wound size” value (corneal wounds; 10 ug/ml, 54 hours post wound) was 0%. The “Percentage of 1 hour post wound size” value (corneal wounds; 10 ug/ml, 72 hours post wound) was 0%, the “Healing activity of corneal wounds” value (corneal wounds; 0.1 and 10 μg/ml vs control, rabbits) was “significant dose dependent accelerated healing activity” and the “Wound healing speed compared with control at each time point” value (corneal wounds; wounds treated with 0.1 μg/ml or 10 μg/ml) was “healed faster”. For the same substance, the “Toxicity on pathological analysis of corneas” value (rabbit corneas) was “no toxicity”.

— patent US20190343922A1, “HISTATIN FOR CORNEAL WOUND HEALING AND OCULAR SURFACE DISEASE” (Rapid Pathogen Screening, Inc., priority 2012, published 2019)
